The values that follow come from article PMC7113690 (Antiviral Research, 2015).

Data set [1] concerns EBOV (Zaire strain) GP/HIV core pseudovirus (pEBOV). Description: organism not typed. The data set is classed as cell-based, Ebola virus (Zaire strain). The following applies: for EC50: read-out: EC50 pEBOV.
The subject of data set [2] is VSV G/HIV core pseudovirus (pVSV). Briefly: organism not typed. The data set is classed as cell-based. The following applies: for EC50: read-out: EC50 pVSV.
Data set [3] has as its system enterovirus 71 (EV-A71, strain G082). The data set is classed as cell-based.
The test system of a further data set is eGFP-EBOV. The note with it: cited from earlier work.
The conditions of data set [4]: cited from earlier work.
The test system of another data set is bacteremia. The following applies: in vivo, 40 mg/kg; cited from earlier work.
A further data set deals with EBOV. The following applies: mouse, in vivo, 14 mg/kg; cited from earlier work.
Data set [5] relates to poliovirus 1 (PV1, strain Sabin). The data set is classed as cell-based.
Data set [6] has as its system EBOV pseudovirus (pEBOV) entry into Vero cells. The data set is classed as cell-based, Ebola virus (Zaire strain).
In data set [7] the test system is Coxsackievirus A16 (CV-A16, strain SHZH05-1). The data set is classed as cell-based.
For data set [8] the following is noted: in vivo; cited from earlier work.
In data set [9] the test system is Ebola virus (Zaire strain) minigenome. The class given is cell-based.

Structures can show the parent of a compound that is named as a salt. Where two headings read alike, the source gives them in different places. Bounds are passed on as bounds.

On to `C[C@@H]1CC[C@H]2[C@@H](C)C(=O)O[C@@H]3O[C@@]4(C)CC[C@@H]1[C@]32OO4` [Artemisinin], for which the EC50 – broadly, the concentration giving half of the maximal effect – in [1] (Vero, 72 h) is 74.1 µM; in [2] (Vero, 72 h) it was 162 µM.

Consider `O=C(OCC(O)CO)c1ccccc1Nc1ccnc2cc(Cl)ccc12` (centres unmarked) [Glafenine], for which the EC50 in data set [1] (Vero, 72 h) was determined as 11.1 µM; in [2] (Vero, 72 h) it was 10.9 µM.

With `CC(C(=O)O)c1ccc(N2Cc3ccccc3C2=O)cc1` (centres unmarked) [Indoprofen], the 50% effective concentration (EC50) was 9.37 µM in data set [1] (Vero, 72 h) and 8.51 µM in [2] (Vero, 72 h).

Regarding `Oc1c(I)cc(I)c2cccnc12` [Iodoquinol], the EC50 is 3.5 µM in [1] (Vero, 72 h) and 3.45 µM in [2] (Vero, 72 h).

On to `C[C@H](N)[C@H](O)c1ccc(O)c(O)c1` [Levonordefrin], for which the half-maximal effective concentration (EC50) in data set [1] (Vero, 72 h) is above 50 µM; in [2] (Vero, 72 h), above 50 µM.

Consider `CCN(CC)CCOCCOC(=O)C(CC)(CC)c1ccccc1` [Oxeladin], for which the EC50 in [1] (Vero, 72 h) came to 8.06 µM; in [2] (Vero, 72 h), 38.1 µM.

Consider `Fc1ccc([C@@H]2CCNC[C@H]2COc2ccc3c(c2)OCO3)cc1` [Paroxetine], for which the EC50 in data set [1] (Vero, 72 h) was 2.4 µM; in data set [2] (Vero, 72 h) it was 7.39 µM.

Consider `CN1CCC(=C2c3ccccc3Sc3ccccc32)CC1` [Pimethixene maleate], for which the EC50 was determined as 10.7 µM in [1] (Vero, 72 h) and 14.8 µM in data set [2] (Vero, 72 h).

As for `O=C1C=C2C=C[C@@H]3C[C@@]2(O1)[C@H]1CCCCN31` [Securinine], the EC50 in data set [1] (Vero, 72 h) is 27.1 µM; in data set [2] (Vero, 72 h) it was 26.6 µM.

In the case of `CN(C)CCOc1ccc(/C(=C(/CCCl)c2ccccc2)c2ccccc2)cc1` [Toremiphene], the EC50 came to 0.38 µM in data set [1] (Vero, 72 h) and 7.53 µM in data set [2] (Vero, 72 h).

In the case of `CN[C@H](CC(C)C)C(=O)N[C@H]1C(=O)N[C@@H](CC(N)=O)C(=O)N[C@H]2C(=O)N[C@H]3C(=O)N[C@H](C(=O)N[C@H](C(=O)O)c4cc(O)cc(O)c4-c4cc3ccc4O)[C@H](O)c3ccc(c(Cl)c3)Oc3cc2cc(c3O[C@@H]2O[C@H](CO)[C@@H](O)[C@H](O)[C@H]2O[C@H]2C[C@](C)(N)[C@H](O)[C@H](C)O2)Oc2ccc(cc2Cl)[C@H]1O` [vancomycin], the inhibition – broadly, the relative decrease from the control value, in per cent – at 125 µM in [1] (Vero, read-out: inhibition of pEBOV) was 24.7%.

As to Teicoplanin, in the data set on Vero cells, the half-maximal cytotoxic concentration (CC50) – broadly, the concentration that lowers cell viability or growth by half – is above 125 µM and the cytotoxicity result is on record as “without cytotoxicity”. The “inhibition of EV-A71” value in data set [3] is recorded as “no inhibition was observed”. In addition, the “activity against eGFP-EBOV in vitro” value in the data set with eGFP-EBOV is “active”. Also, the “bound to plasma protein” value in [4] is given as 90%. In addition, in the data set on bacteremia, the “safety and decrease of bacteremia” value was “safe and effectively in decreasing bacteremia”. The “protection of EBOV-infected mice” value with EBOV is recorded as “no protection was observed”. Besides, the “inhibition of PV1” value in data set [5] is on record as “no inhibition was observed”. For the same molecule, in [1] (125 µM), the “inhibition of pEBOV infection (in words)” value is on record as “completely inhibited”. Moreover, the EC50 in data set [1] was 2.38 µM. Also, the EC90 (as a rule, the concentration at which the effect reaches the 90% level) in data set [1] (read-out: EC90 pEBOV) is 9.36 µM. For the same molecule, in [6], the “inhibition of pEBOV infection, during infection” value is “efficiently inhibited infection”; the “inhibition of pEBOV infection, post-attachment” value is “no inhibition was detected”; the “inhibition of pEBOV infection, pre-attachment” value is “efficiently inhibited infection”. The “inhibition of CV-A16” value in data set [7] was “no inhibition was observed”. Also, the “inhibition of pVSV infection” value in [2] (125 µM) is “less than 20%”. For the same molecule, the EC50 in data set [2] is above 125 µM. In addition, in [8], the “Cmin at which toxicity is seen” value was at least 60000 ng/mL and the “trough plasma concentration (Cmin)” value was 20000 to 60000 ng/mL. Also, the “inhibition of EBOV minigenome replication” value in data set [9] was “did not inhibit”.
